The record followed here is patent publication US20120202822A1, “COMBINATION” (priority 2009, published 2012).

Common to all, as to format: cell-based
Assay [1] relates to seven Compound A resistant clones derived from the A375 PF11 melanoma cell line. The assay can be described thus: Cell Growth Inhibition Assay, summary over resistant clones. The conditions noted are these: Homo sapiens, A375P-F11, 72 h, 3 days, read-out: IC50s, Compound B alone, range over clones. On the procedure: (§1) Melanoma A375 PF11 line was derived from A375 (ATCC). 12R5-1, 12R5-3, 12R8-1, 12R8-3, 16R5-2, 16R6-3 and 16R6-4 are single cell clones derived from mixed populations of A375 PF11 cells that were selected to grow in Compound A to concentrations of 1200 and 1600 nM. All lines were cultured in RPMI 1640 medium containing 10% fetal bovine serum (FBS).
(§2) All cells were cultured for a minimum of 72 hours prior to cell plating. Cells were assayed in a 96-well tissue culture plate (NUNC 136102) of RPMI medium containing 10% FBS for all cells at 1,000 cells per well. Approximately 24 hours after plating, cells were exposed to ten, three-fold serial dilutions of compound or the combination of the two agents at a constant molar to molar ratio of 1:10 Compound A to Compound B in RPMI media containing 10% FBS. Cells were incubated in the presence of compounds for 3 days. ATP levels were determined by adding Cell Titer Glo® (Promega) according to the manufacturer's protocol. Briefly, Cell Titer Glo® was added each plate, incubated for 30 minutes then luminescent signal was read on the SpectraMax L plate reader with a 0.5 sec integration time.
Inhibition of cell growth was estimated after treatment with compound or combination of compounds for three days and comparing the signal to cells treated with vehicle (DMSO). Cell growth was calculated relative to vehicle (DMSO) treated control wells. […]

The test system of a further assay is 16R5-2. The experiment in a line: Cell Growth Inhibition Assay (Cell Titer Glo, 3 days). The settings on record: Homo sapiens, 72 h, 16R5-2 (Compound A resistant clone), read-out: IC50, Single Agent (mean ± std). The method, then: as §1, §2
(§3) Inhibition of cell growth was estimated after treatment with compound or combination of compounds for three days and comparing the signal to cells treated with vehicle (DMSO). Cell growth was calculated relative to vehicle (DMSO) treated control wells. Concentration of compound that inhibits 50% of control cell growth (IC50) was interpolated when y=50% of the vehicle control using nonlinear regression with the equation, y=(A+(B−A)/(1+(C/x)̂D))), where A is the minimum response (ymin), B is the maximum response (ymax), C is the inflection point of the curve (EC50) and D is the Hill coefficient.
(§4) Combination effects on potency were evaluated using Combination Index (CI) which was calculated with the back-interpolated IC50 values and the mutually non-exclusive equation derived by Chou and Talalay (Chou T C, Talalay P. Quantitative analysis of dose-effect relationships: the combined effects of multiple drugs or enzyme inhibitors. Adv Enzyme Regul 1984; 22:27-55.) A detailed description of the CI is found above. In general, a CI value <0.9, between 0.9 and 1.1, or >1.1 indicates synergy, additivity and antagonism, respectively. In general, the smaller the CI number, the greater is the strength of synergy.
(§5) The combination effects on the response scale were quantified by Excess Over Highest Single Agent (EOHSA) based on the concept of nonlinear blending as described in detail by Peterson and Novick (2007) and Peterson (2010) [Peterson J J, Novick S J. J Recept Signal Transduct Res 2007; 27(2-3):125-46, Peterson J. Frontiers of Bioscience S2, 483-503. 2010] EOHSA values are defined as increases in improvement (here, in ‘percentage points’ (ppts) difference) produced by the combination over the best single agent at its component dose level for the combination. Details on the calculation of EOHSA can be found above. For single agent and combination treatments, cells were exposed to compounds at a fixed-dose-ratio, and dose response curves were fit to the experimental data and analyzed using regression models. At specified total dose levels of IC50 along the dose response curve, the dose combination (corresponding to IC50) was determined for making EOHSA statistical inferences. More specifically, for a combination drug experiment involving drug 1 at dose d1 and drug 2 at dose d2, (i.e., total dose equals d1+d2) is said to have a positive EOHSA if the mean response at the combination is better than the mean response to drug 1 at dose d1 […] drug 2 at dose d2.
(Cellular ATP, detected with luciferase, serves as a proxy for viable cell number.)

A further assay concerns 16R6-4. The assay is described as above. The conditions noted are these: Homo sapiens, 72 h, 16R6-4 (Compound A resistant clone), read-out: IC50, Single Agent (mean ± std). The method, then:
as §1, §2, §3, §4, §5

The test system of another assay is 12R5-1. Described as above. The settings on record: Homo sapiens, 72 h, 12R5-1 (Compound A resistant clone), read-out: IC50, Single Agent (mean ± std). On the procedure: as §1, §2, §3, §4, §5
Another assay deals with 12R8-1. The assay is described as above. The settings on record: Homo sapiens, 72 h, 12R8-1 (Compound A resistant clone), read-out: IC50, Single Agent (mean ± std). On the procedure: as §1, §2, §3, §4, §5
A further assay deals with A375PF11. Described as above. The conditions noted are these: Homo sapiens, A375P-F11, 72 h, A375PF11 (BRAF_V600E), read-out: IC50, Single Agent (mean ± std). On the procedure:
as §1, §2, §3, §4, §5

Another assay concerns 12R5-3. The description is as above. The settings on record: Homo sapiens, 72 h, 12R5-3 (Compound A resistant clone), read-out: IC50, Single Agent (mean ± std). On the procedure: as §1, §2, §3, §4, §5
The test system of a further assay is 12R8-3. The description is as above. The conditions noted are these: Homo sapiens, 72 h, 12R8-3 (Compound A resistant clone), read-out: IC50, Single Agent (mean ± std). On the procedure:
as §1, §2, §3, §4, §5

The subject of another assay is 16R6-3. The assay is described as above. The conditions noted are these: Homo sapiens, 72 h, 16R6-3 (Compound A resistant clone), read-out: IC50, Single Agent (mean ± std). The method, then:
as §1, §2, §3, §4, §5

As for `COc1ncc(-c2ccc3nccc(-c4ccnnc4)c3c2)cc1NS(=O)(=O)c1ccc(F)cc1F` [Compound B, 2,4-difluoro-N-{2-(methyloxy)-5-[4-(4-pyridazinyl)-6-quinolinyl]-3-pyridinyl}benzenesulfonamide], the IC50 is 41 to 212 nM in assay [1]; 41 ± 18 nM in the assay with 16R5-2; 61 ± 10 nM with 16R6-4; 212 ± 38 nM with 12R5-1; 103 ± 16 nM in the assay on 12R8-1; 48 nM in the assay on A375PF11. For the same compound, the IC50 in the assay with 12R5-3 worked out at 88 ± 2 nM; in the assay with 12R8-3 it was 129 ± 24 nM; in the assay with 16R6-3, 80 ± 17 nM.
Take `CC(C)(C)c1nc(-c2cccc(NS(=O)(=O)c3c(F)cccc3F)c2F)c(-c2ccnc(N)n2)s1` [Compound A, N-{3-[5-(2-amino-4-pyrimidinyl)-2-(1,1-dimethylethyl)-1,3-thiazol-4-yl]-2-fluorophenyl}-2,6-difluorobenzenesulfonamide]: the IC50 with 16R5-2 is more than 10000 nM; in the assay with 16R6-4 it was more than 10000 nM; in the assay on 12R5-1, more than 10000 nM; in the assay with 12R8-1 it was more than 10000 nM; with A375PF11, 59 nM; in the assay with 12R5-3, more than 10000 nM. Besides, the IC50 in the assay on 12R8-3 and with 16R6-3 was more than 10000 nM in each case.
